Measured values taken from PMC9596378, “Discovery and molecular basis of subtype-selective cyclophilin inhibitors” (Nature Chemical Biology, 2022).
Several values for one entry are separate records, joined by “and”; a condition that tells them apart may be missing. Identical values can stand only once.

How the values were obtained:
Experiment in all cases: Chymotrypsin coupled prolyl-isomerase assay
CypE = target: T1, CypE (Homo sapiens, UniProt Q9UNP9); type: biochemical; conditions: for prolyl-isomerase activity (raw dose-response value): CypE, in s^-1
T1 construct: PPIE (UniProtKB Entry Q9UNP9: residues 131–301); host or cells: E. coli BL21(DE3)
Procedure, shortened: (§1)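 Recombinant cyclophilin (5 nM final) in 25 mM HEPES pH 7.3, 100 mM NaCl, 0.01% Triton X-100 was preincubated with compound at 2–3 °C. It was then coupled with 25 µM α-chymotrypsin and 5 µM Suc-AAPF-AMC (LiCl/TFE), and AMC fluorescence was followed for 330 s.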

CypA = target: T2, CypA (Homo sapiens, UniProt P62937); type: biochemical; conditions: for prolyl-isomerase activity (raw dose-response value): CypA, in s^-1
T2 construct: PPIA (UniProtKB Entry P62937: residues 1–165); made in house; host or cells: E. coli BL21(DE3)
Procedure, shortened: as §1

CypH = target: T3, CypH (Homo sapiens, UniProt O43447); type: biochemical; conditions: for prolyl-isomerase activity (raw dose-response value): CypH
T3 construct: PPIH (UniProtKB Entry O43447: residues 1–177); His6 with TEV site (2BT vector leader) (N); made in house; host or cells: E. coli BL21(DE3)
Procedure, shortened: as §1

CypG = target: T4, CypG (Homo sapiens, UniProt Q13427); type: biochemical; conditions: for prolyl-isomerase activity (raw dose-response value): CypG, in s^-1
T4 construct: PPIG (UniProtKB Entry Q13427: residues 1–179); His6 with thrombin site (pET28a LIC leader) (N); host or cells: E. coli BL21(DE3)
T4 sequence (Q13427 1-179): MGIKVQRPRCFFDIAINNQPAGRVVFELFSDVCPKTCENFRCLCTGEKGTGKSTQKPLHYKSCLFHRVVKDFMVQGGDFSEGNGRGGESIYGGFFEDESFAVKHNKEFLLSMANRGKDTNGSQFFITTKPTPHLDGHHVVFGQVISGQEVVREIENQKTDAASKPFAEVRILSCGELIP
Procedure, shortened: as §1

CypC = target: T5, CypC (Homo sapiens, UniProt P45877); type: biochemical; conditions: for prolyl-isomerase activity (raw dose-response value): CypC, in s^-1
T5 construct: PPIC (UniProtKB Entry P45877: residues 24–212); host or cells: E. coli BL21(DE3)
Procedure, shortened: as §1

PPIL1 = target: T6, PPIL1 (Homo sapiens, UniProt Q9Y3C6); type: biochemical
T6 construct: PPIL1 (UniProtKB Entry Q9Y3C6: residues 1–166); made in house; host or cells: E. coli BL21(DE3)
T6 sequence (Q9Y3C6 1-166): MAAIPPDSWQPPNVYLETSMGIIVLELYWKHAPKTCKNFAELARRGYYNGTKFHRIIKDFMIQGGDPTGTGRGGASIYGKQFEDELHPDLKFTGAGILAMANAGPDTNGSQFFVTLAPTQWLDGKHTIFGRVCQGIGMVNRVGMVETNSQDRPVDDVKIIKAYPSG
Experimental: Adapting a previously described protocol[51], with an Agilent Bravo Velocity 11 with a 384ST head, 90 µL assay buffer (25 mM HEPES pH 7.3, 100 mM NaCl, 0.01% Triton X-100) containing 5.28 nM cyclophilin was added into a flat, clear-bottom, black 384-well plate pre-chilled in a Corning CoolBox at 2–3 °C. Five microliters of compound pre-dissolved in 5% DMSO/assay buffer was then added to appropriate wells and incubated at 2–3 °C for 5 min. Five microliters of 0.5 mM α-chymotrypsin from bovine pancreas (Type II, lyophilized powder, Millipore-Sigma) in 20% 1 mM HCl/Assay Buffer was then added to each well and incubated at 2–3 °C for 5 min. […] Using the internal liquid handling system of the FLIPR, 1 µL 0.5 mM Suc-AAPF-AMC (Chymotrypsin Substrate II, Millipore-Sigma) dissolved in 0.55 M LiCl/2,2,2-trifluoroethanol was added to each well, which was then mixed for 5 s, followed by immediate fluorescence measurements every 1 s for 330 s using a 360–380 nm excitation LED module and a 400–460 nm emission filter. Final concentrations of the plate include 5 nM cyclophilin, 0.25% DMSO, 25 µM α-chymotrypsin, 5 µM Suc-AAPF-AMC. Raw fluorescence data was analyzed by non-linear regression analysis with Prism v.9 by fitting one-phase association curves to each well. Analyses were halted after the calculated maximum fluorescent value owing to observed fluorescent bleaching during the sustained fluorescent plateau. Rate constants calculated for each well (s^−1) were then normalized to substrate only (no prolyl-isomerase) and enzyme + substrate only controls. IC50 values were calculated as the value at which 50% inhibition was achieved on the non-linear regression fitted curve of each compound.

NKTR = target: T7, NKTR (Homo sapiens, UniProt P30414); type: biochemical; conditions: for prolyl-isomerase activity (raw dose-response value): NKTR
T7 construct: NKTR (UniProtKB Entry P30414: residues 7–179); host or cells: E. coli BL21(DE3)
T7 sequence (P30414 7-179): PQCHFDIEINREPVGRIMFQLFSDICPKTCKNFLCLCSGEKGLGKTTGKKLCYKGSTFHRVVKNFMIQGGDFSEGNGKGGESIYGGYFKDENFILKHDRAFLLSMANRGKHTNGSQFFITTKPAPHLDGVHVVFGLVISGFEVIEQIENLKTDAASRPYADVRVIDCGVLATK

Cyp40 = Cyp40 (Homo sapiens, UniProt Q08752); conditions: for prolyl-isomerase activity (raw dose-response value): in s^-1
Procedure, shortened: as §1

T5 sequence (P45877 24-212): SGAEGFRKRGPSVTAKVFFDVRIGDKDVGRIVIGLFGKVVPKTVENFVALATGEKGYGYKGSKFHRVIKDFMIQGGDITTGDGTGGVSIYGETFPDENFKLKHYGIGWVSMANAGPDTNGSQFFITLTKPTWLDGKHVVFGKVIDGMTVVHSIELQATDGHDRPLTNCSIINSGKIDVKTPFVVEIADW
T2 sequence (P62937 whole entry, the tested form may be a part): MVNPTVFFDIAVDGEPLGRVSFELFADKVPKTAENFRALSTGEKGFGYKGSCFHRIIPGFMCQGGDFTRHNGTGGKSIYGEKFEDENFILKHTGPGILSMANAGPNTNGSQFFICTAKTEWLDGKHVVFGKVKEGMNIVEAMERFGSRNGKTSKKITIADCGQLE
T3 sequence (O43447 whole entry, the tested form may be a part): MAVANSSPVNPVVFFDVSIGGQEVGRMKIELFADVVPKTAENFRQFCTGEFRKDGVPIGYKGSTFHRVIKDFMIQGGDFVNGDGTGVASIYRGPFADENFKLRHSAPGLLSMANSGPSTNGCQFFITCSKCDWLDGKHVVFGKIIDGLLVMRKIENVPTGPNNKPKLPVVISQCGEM
Sequence of Cyp40 (Q08752 1-183): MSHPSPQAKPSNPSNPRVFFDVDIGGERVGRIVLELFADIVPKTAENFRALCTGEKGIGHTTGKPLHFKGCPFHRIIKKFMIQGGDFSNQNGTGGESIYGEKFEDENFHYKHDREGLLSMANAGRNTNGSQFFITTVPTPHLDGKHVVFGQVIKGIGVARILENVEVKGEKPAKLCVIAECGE
T1 sequence (Q9UNP9 131-301): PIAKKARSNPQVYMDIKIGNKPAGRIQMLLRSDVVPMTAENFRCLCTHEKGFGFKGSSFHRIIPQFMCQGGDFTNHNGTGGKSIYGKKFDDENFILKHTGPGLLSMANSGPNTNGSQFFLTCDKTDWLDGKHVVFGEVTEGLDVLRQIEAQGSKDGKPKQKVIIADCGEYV

## NCCOCCNC(=O)[C@@H]1CCNC(=O)/C=C/C(=O)N2CCC[C@](Cc3ccccc3)(C2)C(=O)N[C@@H](Cc2ccc(C(=O)c3ccccc3)cc2)C(=O)NCc2ccccc2CC(=O)N1 [Compound B1]
CypE; dose 0.00244141 µM
  prolyl-isomerase activity (raw dose-response value): 0.1145 and 0.1032 and 0.1074
CypE; dose 0.00488281 µM
  prolyl-isomerase activity (raw dose-response value): 0.1194 and 0.1024 and 0.1063
CypE; dose 0.00976562 µM
  prolyl-isomerase activity (raw dose-response value): 0.1019 and 0.09727 and 0.09617
CypE; dose 0.0195312 µM
  prolyl-isomerase activity (raw dose-response value): 0.09053 and 0.08335 and 0.08401
CypE; dose 0.0390625 µM
  prolyl-isomerase activity (raw dose-response value): 0.08777 and 0.07578 and 0.07602
CypE; dose 0.078125 µM
  prolyl-isomerase activity (raw dose-response value): 0.06552 and 0.06127 and 0.05879
CypE; dose 0.15625 µM
  prolyl-isomerase activity (raw dose-response value): 0.05184 and 0.04744 and 0.04506
CypE; dose 0.3125 µM
  prolyl-isomerase activity (raw dose-response value): 0.04144 and 0.0397 and 0.03654
CypE; dose 0.625 µM
  prolyl-isomerase activity (raw dose-response value): 0.03167 and 0.02791 and 0.02701
CypE; dose 1.25 µM
  prolyl-isomerase activity (raw dose-response value): 0.02174 and 0.02048 and 0.01944
CypE; dose 2.5 µM
  prolyl-isomerase activity (raw dose-response value): 0.0149 and 0.01299 and 0.01222
CypE; wild-type CypE, read-out: Wild-Type Cyclophilin Prolyl Isomerase Inhibition IC50 Values, CypE
  IC50: 99 nM
CypA; dose 0.00114312 µM
  prolyl-isomerase activity (raw dose-response value): 0.07489 and 0.0818 and 0.1208
CypA; dose 0.00342935 µM
  prolyl-isomerase activity (raw dose-response value): 0.107 and 0.09816 and 0.1302
CypA; dose 0.0102881 µM
  prolyl-isomerase activity (raw dose-response value): 0.09417 and 0.08156 and 0.09814
CypA; dose 0.0308642 µM
  prolyl-isomerase activity (raw dose-response value): 0.0846 and 0.08188 and 0.08679
CypA; dose 0.0925926 µM
  prolyl-isomerase activity (raw dose-response value): 0.06244 and 0.05553 and 0.05478
CypA; dose 0.277778 µM
  prolyl-isomerase activity (raw dose-response value): 0.04513 and 0.03865 and 0.03913
CypA; dose 0.833333 µM
  prolyl-isomerase activity (raw dose-response value): 0.02761 and 0.02378 and 0.02924
CypA; dose 2.5 µM
  prolyl-isomerase activity (raw dose-response value): 0.01703 and 0.01931 and 0.02247
CypA; wild-type CypA, read-out: Wild-Type Cyclophilin Prolyl Isomerase Inhibition IC50 Values, CypA
  IC50: 70 nM
CypH; dose 0.0228624 µM
  prolyl-isomerase activity (raw dose-response value): 0.05823 and 0.06198 and 0.07295
CypH; dose 0.0685871 µM
  prolyl-isomerase activity (raw dose-response value): 0.0659 and 0.06156 and 0.06865
CypH; dose 0.205761 µM
  prolyl-isomerase activity (raw dose-response value): 0.06027 and 0.0617 and 0.06475
CypH; dose 0.617284 µM
  prolyl-isomerase activity (raw dose-response value): 0.05924 and 0.06278 and 0.06988
CypH; dose 1.85185 µM
  prolyl-isomerase activity (raw dose-response value): 0.05446 and 0.06201 and 0.06094
CypH; dose 5.55556 µM
  prolyl-isomerase activity (raw dose-response value): 0.05231 and 0.05643 and 0.05555
CypH; dose 16.6667 µM
  prolyl-isomerase activity (raw dose-response value): 0.04539 and 0.04092 and 0.04707
CypH; dose 50 µM
  prolyl-isomerase activity (raw dose-response value): 0.02854 and 0.02769 and 0.02761
CypH; wild-type CypH, read-out: Wild-Type Cyclophilin Prolyl Isomerase Inhibition IC50 Values, CypH
  IC50: 20000 nM
CypG; dose 6.125 µM
  prolyl-isomerase activity (raw dose-response value): 0.0775 and 0.0774 and 0.07959
CypG; dose 12.5 µM
  prolyl-isomerase activity (raw dose-response value): 0.07476 and 0.07359 and 0.07437
CypG; dose 25 µM
  prolyl-isomerase activity (raw dose-response value): 0.06566 and 0.06625 and 0.06165
CypG; dose 50 µM
  prolyl-isomerase activity (raw dose-response value): 0.05369 and 0.05651 and 0.05019
CypG; dose 100 µM
  prolyl-isomerase activity (raw dose-response value): 0.03357 and 0.03853 and 0.03559
CypG; wild-type CypG, read-out: Wild-Type Cyclophilin Prolyl Isomerase Inhibition IC50 Values, CypG
  IC50: 70000 nM
CypC; dose 0.00244141 µM
  prolyl-isomerase activity (raw dose-response value): 0.04561 and 0.0417 and 0.04308
CypC; dose 0.00488281 µM
  prolyl-isomerase activity (raw dose-response value): 0.04435 and 0.04111 and 0.04239
CypC; dose 0.00976562 µM
  prolyl-isomerase activity (raw dose-response value): 0.04356 and 0.0401 and 0.04072
CypC; dose 0.0195312 µM
  prolyl-isomerase activity (raw dose-response value): 0.03963 and 0.03695 and 0.03646
CypC; dose 0.0390625 µM
  prolyl-isomerase activity (raw dose-response value): 0.035 and 0.03188 and 0.03161
CypC; dose 0.078125 µM
  prolyl-isomerase activity (raw dose-response value): 0.02847 and 0.0253 and 0.02646
CypC; dose 0.15625 µM
  prolyl-isomerase activity (raw dose-response value): 0.02267 and 0.02159 and 0.02162
CypC; dose 0.3125 µM
  prolyl-isomerase activity (raw dose-response value): 0.01917 and 0.0189 and 0.01739
CypC; dose 0.625 µM
  prolyl-isomerase activity (raw dose-response value): 0.01677 and 0.01627 and 0.01518
CypC; dose 1.25 µM
  prolyl-isomerase activity (raw dose-response value): 0.01345 and 0.01256 and 0.01367
CypC; dose 2.5 µM
  prolyl-isomerase activity (raw dose-response value): 0.009144 and 0.00999 and 0.01009
CypC; wild-type CypC, read-out: Wild-Type Cyclophilin Prolyl Isomerase Inhibition IC50 Values, CypC
  IC50: 79 nM
PPIL1; PPIL1, dose 0.0228624 µM
  prolyl-isomerase activity (raw dose-response value): 0.0901 and 0.08843 and 0.1022
PPIL1; PPIL1, dose 0.0685871 µM
  prolyl-isomerase activity (raw dose-response value): 0.07658 and 0.07564 and 0.08071
PPIL1; PPIL1, dose 0.205761 µM
  prolyl-isomerase activity (raw dose-response value): 0.05553 and 0.06081 and 0.06346
PPIL1; PPIL1, dose 0.617284 µM
  prolyl-isomerase activity (raw dose-response value): 0.04442 and 0.03692 and 0.0407
PPIL1; PPIL1, dose 1.85185 µM
  prolyl-isomerase activity (raw dose-response value): 0.02604 and 0.02534 and 0.024
PPIL1; PPIL1, dose 5.55556 µM
  prolyl-isomerase activity (raw dose-response value): 0.01797 and 0.0175 and 0.01949
PPIL1; PPIL1, dose 16.6667 µM
  prolyl-isomerase activity (raw dose-response value): 0.01539 and 0.0139 and 0.01238
PPIL1; PPIL1, dose 50 µM
  prolyl-isomerase activity (raw dose-response value): 0.01281 and 0.01627 and 0.01081
PPIL1; wild-type PPIL1, read-out: Wild-Type Cyclophilin Prolyl Isomerase Inhibition IC50 Values, PPIL1
  IC50: 200 nM
NKTR; dose 6.125 µM
  prolyl-isomerase activity (raw dose-response value): 0.03455 and 0.03286 and 0.03325
NKTR; dose 12.5 µM
  prolyl-isomerase activity (raw dose-response value): 0.03629 and 0.03152 and 0.03174
NKTR; dose 25 µM
  prolyl-isomerase activity (raw dose-response value): 0.03462 and 0.03246 and 0.03111
NKTR; dose 50 µM
  prolyl-isomerase activity (raw dose-response value): 0.03275 and 0.03195 and 0.02857
NKTR; dose 100 µM
  prolyl-isomerase activity (raw dose-response value): 0.02401 and 0.02915 and 0.0269
NKTR; wild-type NKTR, read-out: Wild-Type Cyclophilin Prolyl Isomerase Inhibition IC50 Values, NKTR
  IC50: > 100000 nM
Cyp40; Cyp40, dose 0.0228624 µM
  prolyl-isomerase activity (raw dose-response value): 0.05537 and 0.05091 and 0.0526
Cyp40; Cyp40, dose 0.0685871 µM
  prolyl-isomerase activity (raw dose-response value): 0.04831 and 0.04914 and 0.04761
Cyp40; Cyp40, dose 0.205761 µM
  prolyl-isomerase activity (raw dose-response value): 0.03428 and 0.03147 and 0.03197
Cyp40; Cyp40, dose 0.617284 µM
  prolyl-isomerase activity (raw dose-response value): 0.02396 and 0.01982 and 0.02092
Cyp40; Cyp40, dose 1.85185 µM
  prolyl-isomerase activity (raw dose-response value): 0.01751 and 0.01672 and 0.01432
Cyp40; Cyp40, dose 5.55556 µM
  prolyl-isomerase activity (raw dose-response value): 0.0143 and 0.01339 and 0.01386
Cyp40; Cyp40, dose 16.6667 µM
  prolyl-isomerase activity (raw dose-response value): 0.01332 and 0.01439 and 0.01303
Cyp40; Cyp40, dose 50 µM
  prolyl-isomerase activity (raw dose-response value): 0.01384 and 0.01317 and 0.01466
Cyp40; Wild-Type Cyclophilin Prolyl Isomerase Inhibition IC50 Values, Cyp40, wild-type Cyp40
  IC50: 50 nM
